Experimental data: the supplement of paper PMC10307832

Assays:
Assay in all cases: relative viability (nuclei count vs DMSO), 5 days (fraction); higher = more cells survive
[1] = compound: Nc1ncn([C@H]2C[C@H](O)[C@@H](CO)O2)c(=O)n1 [Decitabine] + COc1cc2c(Oc3ccc(NC(=O)C4(C(=O)Nc5ccc(F)cc5)CC4)cc3F)ccnc2cc1OCCCN1CCOCC1 [Foretinib] (partner 0.25 µM)
Outline: (§1)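 Lung cancer cell lines in 1536-well plates got either a single drug or a fixed anchor-drug dose together with five library-drug doses (not always all listed) in √10 steps, by pin tool, on the day after seeding. Nuclei were counted after 5 days, and relative viability is the treated-to-vehicle ratio of nuclei counts. Values are medians of duplicate plates.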

[2] = compound: Nc1ncn([C@H]2C[C@H](O)[C@@H](CO)O2)c(=O)n1 [Decitabine] + Cc1nc(NC(=O)N2CCC[C@H]2C(N)=O)sc1-c1ccnc(C(C)(C)C(F)(F)F)c1 [Alpelisib] (partner 2 µM)
Outline: as §1

[3] = compound: O=C(C[C@H]1NCCC[C@@H]1O)Cn1cnc2cc(Br)c(Cl)cc2c1=O (racemic) [Halofuginone] + Nc1ncn([C@H]2C[C@H](O)[C@@H](CO)O2)c(=O)n1 [Decitabine] (partner 2 µM)
Outline: as §1

[4] = compound: COc1cc2c(Oc3ccc4[nH]c(C)cc4c3F)ncnc2cc1OCCCN1CCCC1 [Cediranib] + Cc1nc(NC(=O)N2CCC[C@H]2C(N)=O)sc1-c1ccnc(C(C)(C)C(F)(F)F)c1 [Alpelisib] (partner 2 µM)
Outline: as §1

Cell Line	relative viability ([1]; first compound 0.04 µM)	relative viability ([1]; first compound 0.1265 µM)	relative viability ([1]; first compound 0.4 µM)	relative viability ([1]; first compound 1.265 µM)	relative viability ([1]; first compound 4 µM)	relative viability ([2]; first compound 0.04 µM)	relative viability ([2]; first compound 0.1265 µM)	relative viability ([2]; first compound 0.4 µM)	relative viability ([2]; first compound 1.265 µM)	relative viability ([2]; first compound 4 µM)	relative viability ([3]; first compound 0.001 µM)	relative viability ([3]; first compound 0.003162 µM)	relative viability ([3]; first compound 0.01 µM)	relative viability ([3]; first compound 0.03162 µM)	relative viability ([3]; first compound 0.1 µM)	relative viability ([4]; first compound 0.04 µM)	relative viability ([4]; first compound 0.4 µM)	relative viability ([4]; first compound 1.265 µM)	relative viability ([4]; first compound 4 µM)	relative viability ([4]; first compound 0.1265 µM)
LU99A	0.766	0.814	0.874	0.625	0.486	0.466	0.7	0.625	0.504	0.389	0.783	1.01	0.846	0.769	0.879	0.567	0.489	0.49	0.589	
LXF-289	0.713	0.541	0.399	0.289	0.269	0.716	0.606	0.478	0.352	0.315	0.395	0.393	0.383	0.418	0.381	1.08	0.995	1.05	1.04	0.971
NCI-H23	0.692	0.533	0.393	0.39	0.359	0.604	0.391	0.275	0.218	0.238	0.333	0.314	0.313	0.346	0.273	0.625	0.667	0.7	0.734	
NCI-H322M	0.818	0.872	0.669	0.485	0.473	0.659	0.613	0.71	0.498	0.403	0.71	0.657	0.681	0.657	0.53	0.687	0.655	0.723	0.685	0.84
NCI-H358	0.53	0.406	0.274	0.142	0.136	0.747	0.519	0.383	0.266	0.238	0.227	0.239	0.2	0.135	0.119	1.04	0.745	0.996	0.926	1.05
NCI-H441	0.396	0.401	0.347	0.25	0.325	0.412	0.334	0.276	0.214	0.259	0.29	0.262	0.262	0.275	0.234	0.629		0.638	0.781	0.69
NCI-H460	0.948	0.816	0.619	0.43	0.193	0.425	0.575	0.348	0.268	0.191	0.47	0.509	0.518	0.501	0.0841	0.66	0.418	0.526	0.336	0.525
NCI-H520	0.732	0.691	0.584	0.387	0.343	0.896	0.69	0.597	0.369	0.337	0.529	0.498	0.579	0.607	0.347	1.05	0.838	0.795	0.846	
